Experimental data reported in patent publication US12528812B2 (Genentech, Inc., priority 2020, dated 2026).
Like-named read-outs stand apart in the source and are kept apart here.

What was measured:
[1] = biological target: Recombinant human JAK2 kinase domain protein (Residues 812-1132) (Homo sapiens, UniProt O60674); assay: JAK2 biochemical assay (LabChip mobility shift, Ki); conditions: Biochem JAK2 Ki
[2] = test system: IL-13-stimulated STAT6 phosphorylation in human lung bronchial epithelial BEAS-2B cell line; assay: P-STAT6 BEAS-2B + IL-13 cell assay; assay type: cell-based; conditions: BEAS2B cells, IL13 stimulation, read-out: Cellular JAK1 PSTAT6 BEAS2B + IL13
In short: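 Phospho-STAT6 (Tyr641) was quantified in lysates by MSD electrochemiluminescence after human IL-13 challenge (250 ng/mL stock, 15 min, 37 °C). Before that, BEAS-2B cells cultured 48 h had 1 h compound exposure over 10 concentrations. Percent of control was fitted to a four-parameter logistic model to give IC50.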

[3] = biological target: T1, recombinant human JAK1 kinase domain protein (Residues 854-1154) (Homo sapiens, UniProt P23458); assay: JAK1 biochemical assay (LabChip mobility shift, Ki); conditions: read-out: Biochem JAK1 Ki
T1 construct: human JAK1 kinase domain protein (Residues 854-1154); purchased Proteros Biostructures GmbH (Martinsried, Germany); host or cells: insect cells
T1 sequence (P23458 854-1154): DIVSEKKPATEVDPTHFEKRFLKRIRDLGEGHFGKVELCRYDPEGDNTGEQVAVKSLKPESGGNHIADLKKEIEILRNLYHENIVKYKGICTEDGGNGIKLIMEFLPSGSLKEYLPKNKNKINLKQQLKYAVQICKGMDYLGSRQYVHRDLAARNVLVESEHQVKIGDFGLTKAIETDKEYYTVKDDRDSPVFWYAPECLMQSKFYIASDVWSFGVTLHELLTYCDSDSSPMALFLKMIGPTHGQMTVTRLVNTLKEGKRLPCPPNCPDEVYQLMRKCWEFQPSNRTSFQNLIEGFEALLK

Sequence of Recombinant human JAK2 kinase domain protein (Residues 812-1132) (O60674 812-1132): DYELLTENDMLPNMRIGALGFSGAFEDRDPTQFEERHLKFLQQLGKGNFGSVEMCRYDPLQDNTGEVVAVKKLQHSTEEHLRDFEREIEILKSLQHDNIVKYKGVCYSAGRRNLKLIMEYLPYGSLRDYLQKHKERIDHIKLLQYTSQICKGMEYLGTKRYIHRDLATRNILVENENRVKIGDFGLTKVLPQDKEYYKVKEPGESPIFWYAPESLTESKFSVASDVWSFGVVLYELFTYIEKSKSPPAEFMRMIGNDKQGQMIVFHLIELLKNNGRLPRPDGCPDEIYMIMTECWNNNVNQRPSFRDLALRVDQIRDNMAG

Row | Compound | Ki [1] [nM] | Ki [3] [nM] | IC50 ([2]; Homo sapiens, BEAS-2B) [nM] | IC50 [2] [nM]
1 | CCN1CC(O)(Cn2cc(Oc3ccc(OC(F)F)c(-c4nn(C)cc4NC(=O)c4cnn5cccnc45)c3)cn2)C1 [Example 207, N-[3-[2-(difluoromethoxy)-5-[1-[(1-ethyl-3-hydroxy-azetidin-3-yl)methyl]pyrazol-4-yl]oxy-phenyl]-1-methyl-pyrazol-4-yl]pyrazolo[1,5-a]pyrimidine-3-carboxamide] | 0.53 | 0.73 | 33 | –
2 | O=C(Nc1c[nH]nc1-c1cc(Oc2ccc(OCC(F)(F)F)cc2)ccc1OC(F)F)c1cnn2cccnc12 [Example 5, N-[3-[2-(difluoromethoxy)-5-[4-(2,2,2-trifluoroethoxy)phenoxy]phenyl]-1H-pyrazol-4-yl]pyrazolo[1,5-a]pyrimidine-3-carboxamide] | 0.91 | 1.1 | 18 | –
3 | CCn1cc(NC(=O)c2cnn3cccnc23)c(-c2cc(Oc3cc(F)cc(C4(O)CN(C)C4)c3)ccc2OC(F)F)n1 [Example 107, N-[3-[2-(difluoromethoxy)-5-[3-fluoro-5-(3-hydroxy-1-methyl-azetidin-3-yl)phenoxy]phenyl]-1-ethyl-pyrazol-4-yl]pyrazolo[1,5-a]pyrimidine-3-carboxamide] | 0.49 | 0.43 | 37 | –
4 | CN1CCN(C(=O)c2ccc(Oc3ccc(OC(F)F)c(-c4nn(C)cc4NC(=O)c4cnn5cccnc45)c3)cc2)CC1 [Example 86, N-[3-[2-(difluoromethoxy)-5-[4-(4-methylpiperazine-1-carbonyl)phenoxy]phenyl]-1-methyl-pyrazol-4-yl]pyrazolo[1,5-a]pyrimidine-3-carboxamide] | 0.56 | 1.1 | 77 | –
5 | Cn1cc(NC(=O)c2cnn3cccnc23)c(-c2cc(Oc3cc(CNCCO)ccc3F)ccc2OC(F)F)n1 [Example 91, N-[3-[2-(difluoromethoxy)-5-[2-fluoro-5-[(2-hydroxyethylamino)methyl]phenoxy]phenyl]-1-methyl-pyrazol-4-yl]pyrazolo[1,5-a]pyrimidine-3-carboxamide] | 0.4 | 0.32 | 17 | –
6 | CN1CC(O)(c2cc(Oc3ccc(OC(F)F)c(-c4nn(C)cc4NC(=O)c4cnn5cccnc45)c3)cc(C(F)(F)F)c2)C1 [Example 106, N-[3-[2-(difluoromethoxy)-5-[3-(3-hydroxy-1-methyl-azetidin-3-yl)-5-(trifluoromethyl)phenoxy]phenyl]-1-methyl-pyrazol-4-yl]pyrazolo[1,5-a]pyrimidine-3-carboxamide] | 1.7 | 1.6 | 74 | –
7 | Cn1cc(NC(=O)c2cnn3cccnc23)c(-c2cc(Oc3cc(F)cc(C4(O)CNC4)c3)ccc2OC(F)F)n1 [Example 95, N-[3-[2-(difluoromethoxy)-5-[3-fluoro-5-(3-hydroxyazetidin-3-yl)phenoxy]phenyl]-1-methyl-pyrazol-4-yl]pyrazolo[1,5-a]pyrimidine-3-carboxamide] | 0.23 | 0.17 | 110 | –
8 | N#CCc1ccc(Oc2ccc(OC(F)F)c(-c3n[nH]cc3NC(=O)c3cnn4cccnc34)c2)cc1 [Example 8, N-[3-[5-[4-(cyanomethyl)phenoxy]-2-(difluoromethoxy)phenyl]-1H-pyrazol-4-yl]pyrazolo[1,5-a]pyrimidine-3-carboxamide] | 0.14 | 0.18 | 7.6 | –
9 | Cn1cc(NC(=O)c2cnn3cccnc23)c(-c2cc(Oc3ccccn3)ccc2OC(F)F)n1 [Example 175, N-[3-[2-(difluoromethoxy)-5-(2-pyridyloxy)phenyl]-1-methyl-pyrazol-4-yl]pyrazolo[1,5-a]pyrimidine-3-carboxamide] | 0.57 | 1.1 | 68 | –
10 | Cc1cc(Oc2ccc(OC(F)F)c(-c3nn(C)cc3NC(=O)c3cnn4cccnc34)c2)cc(C2(O)CN(C)C2)c1 [Example 102, N-[3-[2-(difluoromethoxy)-5-[3-(3-hydroxy-1-methyl-azetidin-3-yl)-5-methyl-phenoxy]phenyl]-1-methyl-pyrazol-4-yl]pyrazolo[1,5-a]pyrimidine-3-carboxamide] | 0.43 | 0.44 | 24 | –
11 | Cn1cc(NC(=O)c2cnn3cccnc23)c(-c2cc(Oc3cnn(CC(C)(C)O)c3)ccc2OC(F)F)n1 [Example 124, N-[3-[2-(difluoromethoxy)-5-[1-(2-hydroxy-2-methyl-propyl)pyrazol-4-yl]oxy-phenyl]-1-methyl-pyrazol-4-yl]pyrazolo[1,5-a]pyrimidine-3-carboxamide] | 0.21 | 0.39 | 29 | –
12 | Cc1ccc(Oc2ccc(OC(F)F)c(-c3nn(CCN[C@H]4CCOC4)cc3NC(=O)c3cnn4cccnc34)c2)cc1C(=O)N(C)C (racemic) [Example 58, N-[3-[2-(difluoromethoxy)-5-[3-(dimethylcarbamoyl)-4-methyl-phenoxy]phenyl]-1-[2-[[rac-(3R)-tetrahydrofuran-3-yl]amino]ethyl]pyrazol-4-yl]pyrazolo[1,5-a]pyrimidine-3-carboxamide] | 0.7 | 1.2 | 33 | –

Further lines, with some results ahead:

Row | Ki [1] [nM] | Ki [3] [nM] | Compound | IC50 ([2]; Homo sapiens, BEAS-2B) [nM] | IC50 [2] [nM]
13 | 0.23 | 0.5 | Cn1cc(NC(=O)c2cnn3cccnc23)c(-c2cc(Oc3ccc(C(N)=O)cc3)ccc2OC(F)F)n1 [Example 136, N-[3-[5-(4-carbamoylphenoxy)-2-(difluoromethoxy)phenyl]-1-methyl-pyrazol-4-yl]pyrazolo[1,5-a]pyrimidine-3-carboxamide] | 46 | –
14 | 0.48 | 0.47 | Cn1cc(NC(=O)c2cnn3cccnc23)c(-c2cc(Oc3cccc(C(=O)N4CCC(N5CCOCC5)CC4)c3)ccc2OC(F)F)n1 [Example 81, N-[3-[2-(difluoromethoxy)-5-[3-(4-morpholinopiperidine-1-carbonyl)phenoxy]phenyl]-1-methyl-pyrazol-4-yl]pyrazolo[1,5-a]pyrimidine-3-carboxamide] | 26 | –
15 | 0.65 | 1.2 | Cn1cc(NC(=O)c2cnn3cccnc23)c(-c2cc(Oc3cccc(CN4CCOC[C@@H]4CO)c3)ccc2OC(F)F)n1 (racemic) [Example 93, N-[3-[2-(difluoromethoxy)-5-[3-[[rac-(3R)-3-(hydroxymethyl)morpholin-4-yl]methyl]phenoxy]phenyl]-1-methyl-pyrazol-4-yl]pyrazolo[1,5-a]pyrimidine-3-carboxamide] | 89 | –
16 | 0.69 | 1 | O=C(Nc1c[nH]nc1-c1cc(Oc2cccc(CNC3COC3)c2)ccc1OC(F)F)c1cnn2cccnc12 [Example 11, N-[3-[2-(difluoromethoxy)-5-[3-[(oxetan-3-ylamino)methyl]phenoxy]phenyl]-1H-pyrazol-4-yl]pyrazolo[1,5-a]pyrimidine-3-carboxamide] | 190 | –
17 | 1.5 | 3.2 | Cn1cc(NC(=O)c2cnn3cccnc23)c(-c2cc(Oc3ccc(CN4CCCC(O)C4)cc3)ccc2OC(F)F)n1 (racemic) [Example 164, N-[3-[2-(difluoromethoxy)-5-[4-[[rac-(3S)-3-hydroxy-1-piperidyl]methyl]phenoxy]phenyl]-1-methyl-pyrazol-4-yl]pyrazolo[1,5-a]pyrimidine-3-carboxamide] | 38 | –
18 | 0.38 | 0.82 | Cn1cc(NC(=O)c2cnn3cccnc23)c(-c2cc(Oc3cnn(CC4COC4)c3)ccc2OC(F)F)n1 [Example 125, N-[3-[2-(difluoromethoxy)-5-[1-(oxetan-3-ylmethyl)pyrazol-4-yl]oxy-phenyl]-1-methyl-pyrazol-4-yl]pyrazolo[1,5-a]pyrimidine-3-carboxamide] | 87 | –
19 | 1.9 | 4.1 | Cn1cc(NC(=O)c2cnn3cccnc23)c(-c2cc(Oc3ccc(CN4CCC(CO)C4)cc3)ccc2OC(F)F)n1 (racemic) [Example 170, N-[3-[2-(difluoromethoxy)-5-[4-[[rac-(3S)-3-(hydroxymethyl)pyrrolidin-1-yl]methyl]phenoxy]phenyl]-1-methyl-pyrazol-4-yl]pyrazolo[1,5-a]pyrimidine-3-carboxamide] | 76 | –
20 | 0.68 | 1.2 | Cn1cc(NC(=O)c2cnn3cccnc23)c(-c2cc(Oc3ccc(CN4CCC4CO)cc3)ccc2OC(F)F)n1 (racemic) [Example 169, N-[3-[2-(difluoromethoxy)-5-[4-[[rac-(2R)-2-(hydroxymethyl)azetidin-1-yl]methyl]phenoxy]phenyl]-1-methyl-pyrazol-4-yl]pyrazolo[1,5-a]pyrimidine-3-carboxamide] | – | 29
21 | 0.58 | 0.9 | CN(C)C(=O)CNCc1cccc(Oc2ccc(OC(F)F)c(-c3nn(C)cc3NC(=O)c3cnn4cccnc34)c2)c1 [Example 55, N-[3-[2-(difluoromethoxy)-5-[3-[[[2-(dimethylamino)-2-oxo-ethyl]amino]methyl]phenoxy]phenyl]-1-methyl-pyrazol-4-yl]pyrazolo[1,5-a]pyrimidine-3-carboxamide] | 48 | –
22 | 0.79 | 0.74 | CN1CC(N(C)C(=O)c2cccc(Oc3ccc(OC(F)F)c(-c4nn(C)cc4NC(=O)c4cnn5cccnc45)c3)c2)C1 [Example 205, N-[3-[2-(difluoromethoxy)-5-[3-[methyl-(1-methylazetidin-3-yl)carbamoyl]phenoxy]phenyl]-1-methyl-pyrazol-4-yl]pyrazolo[1,5-a]pyrimidine-3-carboxamide] | 40 | –
